Results published in article PMC7357169, “Blinded, Multicenter Evaluation of Drug-induced Changes in Contractility Using Human-induced Pluripotent Stem Cell-derived Cardiomyocytes” (Toxicological Sciences, 2020).
Read-outs that look alike come from different tables or passages of the source.

Tests used:
cardiac contractility = details: cited from earlier work; for Expected effect on contractility in isolated cardiomyocytes/heart muscles / EC50 / IC50: Refs of Supplementary Table 1, isolated cardiomyocytes/heart muscles; for EC50: read-out: Expected effect on contractility in isolated cardiomyocytes/heart muscles, EC50; for IC50: negative inotropy, read-out: Expected effect on contractility in isolated cardiomyocytes/heart muscles, IC50
heart = tested on: heart; set-up: method as in Refs column of Supplementary Table 1; details: Refs of Supplementary Table 1; cited from earlier work
[1] = cited from earlier work; for FTPC: free therapeutic plasma concentration, Refs of Supplementary Table 1; for FPTC (free plasma therapeutic concentration): ref Supplementary Table 1
hiPSC-CM EHTs = assay: EHT contractility with beat rate slowed by 300 nM ivabradine and electrical pacing 0.5-2.0 Hz; type: cell-based, human; details: EHTs with 300 nM ivabradine, paced; only at 0.5 and 0.7 Hz, sometimes at 1 Hz, never at 1.5 or 2 Hz; high concentration bolus
Protocol: We extended these studies to the 3D EHT platform, this time slowing spontaneous beating to < 0.5 Hz with 300 nM ivabradine, a pharmacological blocker of the “funny” If current ([Bois et al., 1996]). […] Whereas force-frequency relationships was negative above 1.5 Hz, it was positive between 0.5 and 1.5 Hz, evidenced by a 147% increase in force generation concurrent with significant shortening of CT and RT (Supplementary Figure 6). We therefore re-evaluated 6 of the PIs in the presence of 300 nM ivabradine with electrical pacing at 0.5, 0.7, 1.0, 1.5, and 2.0 Hz. These also included epinephrine, levosimendan, and pimobendan, which had been incorrectly predicted by EHT:R-PAT and/or EHT:ERC platform-cell combinations. […] Thus, in both 2D and 3D configurations, lower beating frequencies led to increased predictivity for PIs.
Figure 5. Slowed beat rate increases the predictivity of positive inotropes (PIs) in 3D engineered heart tissues (EHTs). Contraction analysis was carried out using EHTs with 6 of the PIs from the drug test set: epinephrine (Epi), forskolin (For), levosimendan (Lev), pimobendan (Pim), dobutamine (Dob), and milrinone (Mil) which had been predicted with variable accuracy (Figure 4A, web tool). […] Scatter plots show percentage changes relative to baseline at respective frequency. Averaged peaks for force are shown for baseline (BL, black peaks) versus after treatment in EHTs paced at 0.5 Hz (blue peaks) or 2.0 Hz (red peaks). Dunnett’s stats versus baseline at respective frequency: *p < .05; **p < .01; ***p < .001; ****p < .0001.
Supplementary Figure 6. Positive force frequency relationship in EHTs paced between 0.5 and 1.5 Hz. Spontaneous beat rate of EHTs was reduced by 3 hour pre-treatment with 300 nM ivabradine, an If current inhibitor. […] CA increased from 0.5 to 1.5 Hz but plateaued and declined at higher frequencies. These changes were reflected in the CT and RT data. Dunnett's stats vs vehicle control: *, P<0.05; **, P<0.01; ***, P<0.001; ****, P<0.0001.

hiPSC-CMs = assay: Training set contractility in hiPSC-CMs on TTM, CellOPTIQ and EHT platforms; type: cell-based, human; details: for inotropy (CA) response: trend or significant response, Supplementary Figure 3
Protocol: The training set of 8 drugs was used to test and refine protocols. […] For each parameter, the percentage change in drug-treated samples relative to their respective vehicle control was calculated using the formula ([drug/drug baseline]/[vehicle/vehicle baseline])*100–100. […] These studies allowed unification of SOPs, although physical and technical constraints between the platforms meant that some unavoidable differences remained (Supplementary Table 2).
Supplementary Figure 3: Training sets to unify drug testing procedures. […] The percentage change in drug treated samples is relative to their respective vehicle control. Unpaired T-test. * p<0.05; ** p<0.01; *** p<0.001; **** p<0.0001.

[2] = heart muscle, at 500 µM, ref (Kirby et al. 1992), (Baudet et al. 1993)

SMILES	Expected effect on contractility in isolated cardiomyocytes/heart muscles (cardiac contractility)	Expected cardiac effects in vivo (heart)	FTPC [1] [µM]	FPTC (free plasma therapeutic concentration) [1] [µM]	also measured
CC(=O)Oc1ccccc1C(=O)O [Acetylsalicylic acid]	None	None	0.3 to 2	0.3 to 2	–
CC(C)NCC(O)COc1ccc(CC(N)=O)cc1 (stereo not drawn) [Atenolol]	None (in absence of agonist) until 3000 µM (in contrast to e.g. propranolol)	NI, NC, ND	–	–	–
COC(=O)C1=C(C)NC(C)=C([N+](=O)[O-])C1c1ccccc1C(F)(F)F (stereo not drawn) [Bay K 8644]	PI, NL	PI (indirect NC because of RR increase)	–	–	–
C[C@H](CS)C(=O)N1CCC[C@H]1C(=O)O [Captopril]	None	None	1 to 2	1 to 2	–
CN(C)CCCC1(c2ccc(F)cc2)OCc2cc(C#N)ccc21 (stereo not drawn) [Citalopram]	NI at 30 µM	None (at therapeutic doses), higher risk of TdP	0.05	0.05	NI (cardiac contractility; at 30 µM, in hEHT, ref (Witchel et al. 2002), (Mannhardt et al. 2017), (Rao 2007)): -57%; NI (cardiac contractility; at 30 µM, in human atria, ref (Witchel et al. 2002), (Mannhardt et al. 2017), (Rao 2007)): -38%
Clc1cccc(Cl)c1N=C1NCCN1 [Clonidine]	None	NI, NC	0.002 to 0.004	0.002 to 0.004	–
COc1ccc(C(=O)N2CCCc3cc(C4=NNC(=O)SC4C)ccc32)cc1OC (stereo not drawn) [EMD 57033]	PI, NL	–	16	–	EC50 (cardiac contractility): ~5000 nM
CNC[C@H](O)c1ccc(O)c(O)c1 [Epinephrine]	–	PI, PC	0.0002 to 0.050	0.0002 to 0.05	EC50 (cardiac contractility): 100 nM; CA response (hiPSC-CM EHTs): increased contraction amplitude
O=C(NCC1CCCCN1)c1cc(OCC(F)(F)F)ccc1OCC(F)(F)F (stereo not drawn) [Flecainide]	–	–	–	–	IC50 (cardiac contractility): 300 nM
COc1ccc(Cl)cc1C(=O)NCCc1ccc(S(=O)(=O)NC(=O)NC2CCCCC2)cc1 [Glibenclamide]	None; PI in ischemia or presence of KATP opener; NI in adrenalectomized dogs, NE in isolated dog heart trabeculae	None or PI in ischemia	0.02 to 0.06	0.02 to 0.06	–
CCC(C)n1ncn(-c2ccc(N3CCN(c4ccc(OCC5COC(Cn6cncn6)(c6ccc(Cl)cc6Cl)O5)cc4)CC3)cc2)c1=O (stereo not drawn) [Itraconazole]	–	–	0.00086	0.00086	NI (cardiac contractility; at 0.3 µM, rabbit heart, ref (Head et al. 2015), (Qu et al. 2013), (Bellmann 2007)): -30%
CC(=O)Nc1ccc(O)cc1 [Paracetamol]	None	None	50	50	–
Cc1ccc(N(CC2=NCCN2)c2cccc(O)c2)cc1 [Phentolamine]	–	–	–	–	inotropic effect at concentrations above 10 µM (cardiac contractility; above 10 µM, via modulation of fast sodium and L-type calcium channels, ref Rosen et al., 1971, Sada, 1978): negative inotropy; inotropic effect at free plasma concentrations (cardiac contractility; approximately 2.5 µM in patients, ref Wallis et al., 2015): neutral inotrope; IC50 (cardiac contractility): ~20000 nM; free plasma concentration in patients ([1]; patients, ref Wallis et al., 2015): approximately 2.5 µM
COc1ccc(-c2nc3ccc(C4=NNC(=O)CC4C)cc3[nH]2)cc1 (stereo not drawn) [Pimobendan]	–	PI, small PC	0.005 to 0.01	0.005 to 0.01	EC50 (cardiac contractility): 34000 nM; CA response (hiPSC-CM EHTs): increased contraction amplitude
CCCc1nn(C)c2c(=O)[nH]c(-c3cc(S(=O)(=O)N4CCN(C)CC4)ccc3OCC)nc12 [Sildenafil]	None	None or PI+PC (indirect)	–	–	–
CNC(=O)c1cc(Oc2ccc(NC(=O)Nc3ccc(Cl)c(C(F)(F)F)c3)cc2)ccn1 [Sorafenib]	None (feline and canine CM, but cell death), NI (rat heart)	None or NI at high doses, delayed cardiotox	0.03	0.03	–
CC(C)(C)NCC(O)c1cc(O)cc(O)c1 (stereo not drawn) [Terbutaline]	–	–	1.3	1.3	EC50 (cardiac contractility): 3000 nM
COc1ccc(CCN(C)CCCC(C#N)(c2ccc(OC)c(OC)c2)C(C)C)cc1OC (stereo not drawn) [Verapamil]	–	NI (direct) partially masked by adrenergic activation (indirect), NC or none, ND (direct)	–	–	IC50 (cardiac contractility): 100 nM
CN(C)C/C=C(/c1ccc(Br)cc1)c1cccnc1 [Zimelidine]	–	None (at ther. doses), QT and QRS widening at high doses	–	–	–
Cn1c(=O)c2c(ncn2C)n(C)c1=O [caffeine]	Small PI and PL at 100 µM, transient large PI, NL at >10 mM	–	–	–	–
C[C@H]1O[C@@H](O[C@H]2[C@@H](O)C[C@H](O[C@H]3[C@@H](O)C[C@H](O[C@H]4CC[C@@]5(C)[C@H](CC[C@@H]6[C@@H]5C[C@@H](O)[C@]5(C)[C@@H](C7=CC(=O)OC7)CC[C@]65O)C4)O[C@@H]3C)O[C@@H]2C)C[C@H](O)[C@@H]1O [digoxin]	PI+ PL (< 1 µM, slowly developing, t1/2 conc.-dependent) NI + diast. shortening (>1 µM)	PI, arrhythmias	–	–	RT response (hiPSC-CMs; 2D configuration): tended to increase RT; inotropy (CA) response (hiPSC-CMs): positive inotropy
CC(C)NCC(O)c1ccc(O)c(O)c1 (stereo not drawn) [isoprenaline]	–	PI, PC	0.0095	–	EC50 (cardiac contractility): 10 nM; CT and RT response (hiPSC-CMs; 3D EHTs): decreased of both CT and RT; inotropy (CA) response (hiPSC-CMs): positive inotropy
COC(=O)C1=C(C)NC(C)=C(C(=O)OC)C1c1ccccc1[N+](=O)[O-] [nifedipine]	–	Small NI (direct) overridden by adrenergic activation, PC (indirect)	–	–	IC50 (cardiac contractility): 100 nM; inotropy (CA) response (hiPSC-CMs): negative inotropy
CC(C)[C@@]1(O)[C@@H](OC(=O)c2ccc[nH]2)[C@@]2(O)[C@@]3(C)C[C@]4(O)O[C@@]5([C@H](O)[C@@H](C)CC[C@]35O)[C@@]2(O)[C@@]14C [ryanodine]	NI, NCl, species dependent biphasic	–	–	–	IC50 (cardiac contractility): ~10 nM
C/C=C(/C)C(=O)O[C@H]1C(C)=C2[C@H]([C@@H]1OC(=O)CCCCCCC)[C@@](C)(OC(C)=O)C[C@H](OC(=O)CCC)[C@@]1(O)[C@H]2OC(=O)[C@@]1(C)O [thapsigargin]	–	–	–	–	NI (cardiac contractility; [2]): ~50%; NL (cardiac contractility; [2]): ~20%; NI (cardiac contractility; isolated myocytes, at 0.1 µM, ref (Kirby et al. 1992), (Baudet et al. 1993)): ~90%
